According to patent US20020137929A1, “1 - (3-heterocyclylphenyl) isothiourea, -isourea, -guanidine and -amidine herbicidal agents” (Intellectual Property Department, BASF Aktiengesellschaft, priority 1998, published 2002):

Legend:
[1] = test system: SAGPY (Arrowhead (Pygmaea)); assay: Preemergence weed control under flooded paddy conditions; type: in vivo, Sagittaria pygmaea; conditions: rated 3-4 weeks after treatment
Outline: (§1)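 Visual injury scored 0-9 against control three to four weeks post-treatment, greenhouse-grown. Application: acetone/water (50/50) solutions dosed directly into flood water (1.5-3 cm over silt loam, planted top 0.5 cm), roughly 0.0313 to 0.500 kg/ha active ingredient.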

CASOB (Sicklepod) [2] = assay: Postemergence herbicidal evaluation; type: in vivo, Cassia obtusifolia; conditions: postemergence
Outline: (§2)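 Two-week-old seedlings sprayed with compound in 50/50 acetone/water plus 0.5% TWEEN 20, at about 0.0156 to 0.500 kg/ha, nozzle at 40 psi. Kept in greenhouse; rated visually 4-5 weeks after treatment on a 0-9 scale versus control, repeat tests averaged.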

[3] = test system: GLXMAW (Soybean, Williams); assay: Postemergence herbicidal evaluation; type: in vivo, Glycine max, (L.) Merr. cv Williams; conditions: postemergence
Outline: as §2

AMBEL (Ragweed, Common) = assay: Postemergence herbicidal evaluation; type: in vivo, Ambrosia artemisifolia; conditions: postemergence
Outline: as §2

GALAP (Galium) [4] = assay: Preemergence herbicidal evaluation; type: in vivo, Galium aparine; conditions: rated 4-5 weeks after treatment
Outline: (§3)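 Test compound, dissolved in aqueous acetone, was sprayed over planted soil cups at an equivalent of about 0.0156 to 0.500 kg/ha; seeds had been mixed with potting soil. Greenhouse growth followed, with visual 0-9 scoring of injury at four to five weeks.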

ECHCG (Barnyardgrass) = assay: Postemergence herbicidal evaluation; type: in vivo, Echinochloa crus-galli; conditions: postemergence
Outline: as §2

CASOB (Sicklepod) [5] = assay: Preemergence herbicidal evaluation; type: in vivo, Cassia obtusifolia; conditions: rated 4-5 weeks after treatment
Outline: as §3

CYPSE (Flatsedge) [6] = assay: Preemergence weed control under flooded paddy conditions; type: in vivo, Cyperus serotinus; conditions: rated 3-4 weeks after treatment
Outline: as §1

SETVI (Foxtail, Green) = assay: Postemergence herbicidal evaluation; type: in vivo, Setaria viridis; conditions: postemergence
Outline: as §2

GALAP (Galium) [7] = assay: Postemergence herbicidal evaluation; type: in vivo, Galium aparine; conditions: postemergence
Outline: as §2

CYPIR (Rice Flatsedge) = assay: Preemergence weed control under flooded paddy conditions; type: in vivo, Cyperus iria; conditions: rated 3-4 weeks after treatment
Outline: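 Herbicidal effect is scored visually on a 0-9 scale against an untreated control, three to four weeks after compounds are pipetted into the flood water (1.5 to 3 cm deep) over seeds planted in silt loam at 0.5 cm depth. Rates: about 0.0313 to 0.500 kg/ha.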

[8] = test system: CHEAL (Lambsquarters, Common); assay: Postemergence herbicidal evaluation; type: in vivo, Chenopodium album; conditions: postemergence
Outline: as §2

CYPSE (Flatsedge) [9] = assay: Postemergence weed control under flooded paddy conditions; type: in vivo, Cyperus serotinus; conditions: postemergence weeds, 3-4 weeks after treatment
Outline: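 Injury ratings (0–9 scale covering stand, vigor, malformation, size, chlorosis and overall appearance versus control) were made three to four weeks after treatment. Test material, about 0.0313 to 0.500 kg/ha a.i. in 50/50 v/v aqueous/acetone, was added to flood water 1.5 to 3 cm deep over 3 to 5 cm weeds and 1.5 to 2.5 leaf rice.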

ZEAMX (Corn, Field) = assay: Preemergence herbicidal evaluation; type: in vivo, Zea mays; conditions: rated 4-5 weeks after treatment
Outline: as §3

ORYSAT (Rice, Tebonnet) = assay: Postemergence herbicidal evaluation; type: in vivo, Oryza sativa, (L.) Tebonnet; conditions: postemergence
Outline: as §2

`CCOC(=O)CN1C(=O)CSC1=Nc1cc(-n2c(=O)cc(C(F)(F)F)n(C)c2=O)c(F)cc1Cl` [Compound 8, Ethyl 2-{{2-chloro-5-[3,6-dihydro-3-methyl-2,6-dioxo-4-(trifluoromethyl)-1(2H)pyrimidinyl]-4-fluorophenyl}imino}-4-oxo-3-thiazolidineacetate] was tested, and the “Herbicidal rating SAGPY” value ([1]; 0.0313 kg/ha) was 0.0, the “Herbicidal rating SAGPY” value ([1]; 0.0625 kg/ha) was 0.0 and the “Herbicidal rating SAGPY” value ([1]; 0.1250 kg/ha) was 0.0. For the same molecule, the “Herbicidal rating SAGPY” value ([1]; 0.2500 kg/ha) was 0.0, the CASOB herbicidal rating (CASOB (Sicklepod) [2]; rate 0.0157 kg/ha) was 0.0 and the CASOB herbicidal rating (CASOB (Sicklepod) [2]; rate 0.0313 kg/ha) was 1.8. It also gave a CASOB herbicidal rating (CASOB (Sicklepod) [2]; rate 0.0625 kg/ha) of 3.0, a CASOB herbicidal rating (CASOB (Sicklepod) [2]; rate 0.1250 kg/ha) of 3.0 and a GLXMAW herbicidal rating ([3]; rate 0.0157 kg/ha) of 7.5. The GLXMAW herbicidal rating ([3]; rate 0.0313 kg/ha) was 7.6, the GLXMAW herbicidal rating ([3]; rate 0.0625 kg/ha) was 7.9 and the GLXMAW herbicidal rating ([3]; rate 0.1250 kg/ha) was 8.4. It also gave an AMBEL herbicidal rating (AMBEL (Ragweed, Common); rate 0.0157 kg/ha) of 9.0, an AMBEL herbicidal rating (AMBEL (Ragweed, Common); rate 0.0313 kg/ha) of 7.8 and an AMBEL herbicidal rating (AMBEL (Ragweed, Common); rate 0.0625 kg/ha) of 8.3. For the same molecule, the AMBEL herbicidal rating (AMBEL (Ragweed, Common); rate 0.1250 kg/ha) was 8.6, the “GALAP preemergence herbicidal rating” value (GALAP (Galium) [4]; rate 0.0156 kg/ha) was 0.0 and the “GALAP preemergence herbicidal rating” value (GALAP (Galium) [4]; rate 0.0313 kg/ha) was 1.3. The “GALAP preemergence herbicidal rating” value (GALAP (Galium) [4]; rate 0.0625 kg/ha) was 5.5, the “GALAP preemergence herbicidal rating” value (GALAP (Galium) [4]; rate 0.1250 kg/ha) was 7.5 and the “GALAP preemergence herbicidal rating” value (GALAP (Galium) [4]; rate 0.2500 kg/ha) was 9.0. For the same molecule, the “GALAP preemergence herbicidal rating” value (GALAP (Galium) [4]; rate 0.5000 kg/ha) was 9.0, the ECHCG herbicidal rating (ECHCG (Barnyardgrass); rate 0.0157 kg/ha) was 3.0 and the ECHCG herbicidal rating (ECHCG (Barnyardgrass); rate 0.0313 kg/ha) was 2.1. For the same molecule, the ECHCG herbicidal rating (ECHCG (Barnyardgrass); rate 0.0625 kg/ha) was 5.3, the ECHCG herbicidal rating (ECHCG (Barnyardgrass); rate 0.1250 kg/ha) was 8.2 and the “CASOB preemergence herbicidal rating” value (CASOB (Sicklepod) [5]; rate 0.0156 kg/ha) was 0.0. For the same molecule, the “CASOB preemergence herbicidal rating” value (CASOB (Sicklepod) [5]; rate 0.0313 kg/ha) was 0.1, the “CASOB preemergence herbicidal rating” value (CASOB (Sicklepod) [5]; rate 0.0625 kg/ha) was 1.2 and the “CASOB preemergence herbicidal rating” value (CASOB (Sicklepod) [5]; rate 0.1250 kg/ha) was 1.7. The “CASOB preemergence herbicidal rating” value (CASOB (Sicklepod) [5]; rate 0.2500 kg/ha) was 3.3, the “CASOB preemergence herbicidal rating” value (CASOB (Sicklepod) [5]; rate 0.5000 kg/ha) was 3.8 and the “Herbicidal rating CYPSE” value (CYPSE (Flatsedge) [6]; 0.0313 kg/ha) was 0.0. For the same molecule, the “Herbicidal rating CYPSE” value (CYPSE (Flatsedge) [6]; 0.0625 kg/ha) was 0.0, the “Herbicidal rating CYPSE” value (CYPSE (Flatsedge) [6]; 0.1250 kg/ha) was 0.0 and the “Herbicidal rating CYPSE” value (CYPSE (Flatsedge) [6]; 0.2500 kg/ha) was 0.0. It also gave an SETVI herbicidal rating (SETVI (Foxtail, Green); rate 0.0313 kg/ha) of 5.3, an SETVI herbicidal rating (SETVI (Foxtail, Green); rate 0.0625 kg/ha) of 7.6 and an SETVI herbicidal rating (SETVI (Foxtail, Green); rate 0.1250 kg/ha) of 9.0. For the same molecule, the GALAP herbicidal rating (GALAP (Galium) [7]; rate 0.0157 kg/ha) was 3.0, the GALAP herbicidal rating (GALAP (Galium) [7]; rate 0.0313 kg/ha) was 4.5 and the GALAP herbicidal rating (GALAP (Galium) [7]; rate 0.0625 kg/ha) was 6.3. The GALAP herbicidal rating (GALAP (Galium) [7]; rate 0.1250 kg/ha) was 6.8, the “Herbicidal rating CYPIR” value (CYPIR (Rice Flatsedge); 0.0313 kg/ha) was 0.0 and the “Herbicidal rating CYPIR” value (CYPIR (Rice Flatsedge); 0.0625 kg/ha) was 0.0. For the same molecule, the “Herbicidal rating CYPIR” value (CYPIR (Rice Flatsedge); 0.1250 kg/ha) was 0.0, the “Herbicidal rating CYPIR” value (CYPIR (Rice Flatsedge); 0.2500 kg/ha) was 4.0 and the CHEAL herbicidal rating ([8]; rate 0.0157 kg/ha) was 5.0. It also gave a CHEAL herbicidal rating ([8]; rate 0.0313 kg/ha) of 7.5, a CHEAL herbicidal rating ([8]; rate 0.0625 kg/ha) of 8.4 and a CHEAL herbicidal rating ([8]; rate 0.1250 kg/ha) of 9.0. For the same molecule, the “Herbicidal rating CYPSE” value (CYPSE (Flatsedge) [9]; rate 0.0313 kg/ha) was 0.0, the “Herbicidal rating CYPSE” value (CYPSE (Flatsedge) [9]; rate 0.0625 kg/ha) was 0.0 and the “Herbicidal rating CYPSE” value (CYPSE (Flatsedge) [9]; rate 0.1250 kg/ha) was 0.0. For the same molecule, the “Herbicidal rating CYPSE” value (CYPSE (Flatsedge) [9]; rate 0.2500 kg/ha) was 0.0, the “ZEAMX preemergence herbicidal rating” value (ZEAMX (Corn, Field); rate 0.0156 kg/ha) was 2.2 and the “ZEAMX preemergence herbicidal rating” value (ZEAMX (Corn, Field); rate 0.0313 kg/ha) was 4.9. The “ZEAMX preemergence herbicidal rating” value (ZEAMX (Corn, Field); rate 0.0625 kg/ha) was 6.4, the “ZEAMX preemergence herbicidal rating” value (ZEAMX (Corn, Field); rate 0.1250 kg/ha) was 7.4 and the “ZEAMX preemergence herbicidal rating” value (ZEAMX (Corn, Field); rate 0.2500 kg/ha) was 7.9. For the same molecule, the “ZEAMX preemergence herbicidal rating” value (ZEAMX (Corn, Field); rate 0.5000 kg/ha) was 8.3, the ORYSAT herbicidal rating (ORYSAT (Rice, Tebonnet); rate 0.0157 kg/ha) was 2.0 and the ORYSAT herbicidal rating (ORYSAT (Rice, Tebonnet); rate 0.0313 kg/ha) was 2.7. It also gave an ORYSAT herbicidal rating (ORYSAT (Rice, Tebonnet); rate 0.0625 kg/ha) of 4.1 and an ORYSAT herbicidal rating (ORYSAT (Rice, Tebonnet); rate 0.1250 kg/ha) of 5.3.
